Source: US6737383B1, “Herbicidal oxadiazolidines” (priority 1999, dated 2004)

Legend:
bedstraw = assay: Test B pre/postemergence bedstraw; format: in vivo, Galium aparine
Outline: (§1)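 Test chemicals in a non-phytotoxic solvent mixture with surfactant were sprayed preemergence onto planted seeds and postemergence onto plants 2 to 18 cm tall (1- to 4-leaf stage). After twelve to sixteen days in a greenhouse, injury was visually rated against untreated controls from 0 (no effect) to 10 (complete control).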

blackgrass = assay: Test B pre/postemergence blackgrass; format: in vivo, Alopecurus myosuroides
Outline: as §1

surinam grass = assay: Test B pre/postemergence surinam grass; format: in vivo, Brachiaria decumbens
Outline: as §1

cocklebur = assay: Test B pre/postemergence cocklebur; format: in vivo, Xanthium strumarium
Outline: as §1

corn = assay: Test B pre/postemergence corn; format: in vivo, Zea mays
Outline: as §1

morningglory = assay: Test B pre/postemergence morningglory; format: in vivo, Ipomoea hederacea
Outline: as §1

pigweed = assay: Test B pre/postemergence pigweed; format: in vivo, Amaranthus retroflexus
Outline: as §1

rape = assay: Test B pre/postemergence rape; format: in vivo, Brassica napus
Outline: as §1

velvetleaf = assay: Test B pre/postemergence velvetleaf; format: in vivo, Abutilon theophrasti
Outline: as §1

wheat = assay: Test B pre/postemergence wheat; format: in vivo, Triticum aestivum
Outline: as §1

wild oat = assay: Test B pre/postemergence wild oat; format: in vivo, Avena fatua
Outline: as §1

purple nutsedge = assay: Test B pre/postemergence purple nutsedge; format: in vivo, Cyperus rotundus
Outline: as §1

rice = assay: Test B flood test rice; format: in vivo, Oryza sativa
Outline: (§2)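 Each value is a visual injury score relative to controls, with 10 meaning complete control and 0 no effect. Evaluation took place twelve to sixteen days after the 2-leaf-stage plants were treated and kept in the greenhouse.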

smallflower flatsedge = assay: Test B flood test smallflower flatsedge; format: in vivo, Cyperus difformis
Outline: as §2

duck salad = assay: Test B flood test duck salad; format: in vivo, Heteranthera limosa
Outline: as §2

bamyardgrass = assay: Test B flood test barnyardgrass; format: in vivo, Echinochloa crus-galli
Outline: as §2

[1] = Postemergence, Rate 125 g/ha, scale 0 to 10, 0 is no effect, 10 is complete control
[2] = Postemergence, Rate 250 g/ha, scale 0 to 10, 0 is no effect, 10 is complete control
[3] = Postemergence, Rate 500 g/ha, scale of 0 to 10 where 0 is no effect and 10 is complete control
[4] = Preemergence, Rate 62 g/ha, scale 0 to 10 (0 no effect, 10 complete control)
[5] = Preemergence, Rate 125 g/ha, scale of 0 to 10 where 0 is no effect and 10 is complete control
[6] = Preemergence, Rate 250 g/ha, scale of 0 to 10 where 0 is no effect and 10 is complete control
[7] = Preemergence, Rate 500 g/ha, scale 0 to 10, 0 is no effect, 10 is complete control
[8] = Rate 62 g/ha, Postemergence, scale of 0 to 10 where 0 is no effect and 10 is complete control
[9] = Preemergence, Rate 250 g/ha, scale 0 to 10, 0 is no effect, 10 is complete control
[10] = Rate 62 g/ha, flood test species, Pre-emergence, visual evaluation after twelve to sixteen days
[11] = Rate 125 g/ha, under heading Pre-emergence, flood test species, visual evaluation after twelve to sixteen days
[12] = Rate 250 g/ha, Pre-emergence, flood-test species, scale 0 to 10, 0 is no effect, 10 is complete control
[13] = Rate 500 g/ha, Pre-emergence, flood test species, scale 0 to 10 (0 no effect, 10 complete control)

CC(C)N(C(=O)n1oc(=O)n(CC#N)c1=O)c1ccc(F)cc1 [Compound 395]
2: Plant response rating, Velvetleaf (velvetleaf; [2]) | Velvetleaf plant response rating (velvetleaf; [3])
5: Blackgrass plant response rating (blackgrass; [3])
4: Bedstraw plant response rating (bedstraw; [3])
0: Plant response rating, Bedstraw (bedstraw; [1]) | Plant response rating, Bedstraw (bedstraw; [2]) | Plant response rating, Bedstraw (bedstraw; [4]) | Plant response rating, Bedstraw (bedstraw; [5]) | Bedstraw plant response rating (bedstraw; [6]) | Bedstraw plant response rating (bedstraw; [7]) | Bedstraw plant response rating (bedstraw; [8]) | Plant response rating, Blackgrass (blackgrass; [1]) | Plant response rating, Blackgrass (blackgrass; [2]) | Plant response rating, Blackgrass (blackgrass; [4]) | Plant response rating, Blackgrass (blackgrass; [5]) | Blackgrass plant response rating (blackgrass; [6]) | Blackgrass plant response rating (blackgrass; [7]) | Blackgrass plant response rating (blackgrass; [8]) | Plant response rating, B. signalgrass (surinam grass; [1]) | Plant response rating, B. signalgrass (surinam grass; [2]) | B. signalgrass plant response rating (surinam grass; [3]) | Plant response rating, B. signalgrass (surinam grass; [4]) | Plant response rating, B. signalgrass (surinam grass; [5]) | B. signalgrass plant response rating (surinam grass; [6]) | B. signalgrass plant response rating (surinam grass; Preemergence, Rate 500 g/ha, scale of 0 to 10 where 0 is no effect and 10 is complete control) | B. signalgrass plant response rating (surinam grass; [8]) | Plant response rating, Cocklebur (cocklebur; [1]) | Plant response rating, Cocklebur (cocklebur; [2]) | Cocklebur plant response rating (cocklebur; [3]) | Plant response rating, Cocklebur (cocklebur; [4]) | Plant response rating, Cocklebur (cocklebur; [5]) | Cocklebur plant response rating (cocklebur; [9]) | Cocklebur plant response rating (cocklebur; [7]) | Cocklebur plant response rating (cocklebur; [8]) | Plant response rating, Corn (corn; [1]) | Plant response rating, Corn (corn; [2]) | Corn plant response rating (corn; [3]) | Plant response rating, Corn (corn; [4]) | Plant response rating, Corn (corn; [5]) | Corn plant response rating (corn; [9]) | Corn plant response rating (corn; [7]) | Corn plant response rating (corn; [8]) | Plant response rating, Morningglory (morningglory; [2]) | Plant response rating, Morningglory (morningglory; [4]) | Plant response rating, Morningglory (morningglory; [5]) | Morningglory plant response rating (morningglory; [9]) | Morningglory plant response rating (morningglory; [7]) | Morningglory plant response rating (morningglory; [8]) | Plant response rating, Redroot pigweed (pigweed; [2]) | Redroot pigweed plant response rating (pigweed; [3]) | Plant response rating, Redroot pigweed (pigweed; [4]) | Plant response rating, Redroot pigweed (pigweed; [5]) | Redroot pigweed plant response rating (pigweed; [9]) | Redroot pigweed plant response rating (pigweed; [7]) | Redroot pigweed plant response rating (pigweed; [8]) | Plant response rating, Rape (rape; [2]) | Plant response rating, Rape (rape; [4]) | Plant response rating, Rape (rape; [5]) | Rape plant response rating (rape; [9]) | Rape plant response rating (rape; [7]) | Rape plant response rating (rape; [8]) | Plant response rating, Velvetleaf (velvetleaf; [4]) | Plant response rating, Velvetleaf (velvetleaf; [5]) | Velvetleaf plant response rating (velvetleaf; [9]) | Velvetleaf plant response rating (velvetleaf; [7]) | Velvetleaf plant response rating (velvetleaf; [8]) | Plant response rating, Wheat (wheat; [4]) | Plant response rating, Wheat (wheat; [5]) | Wheat plant response rating (wheat; [9]) | Wheat plant response rating (wheat; [7]) | Wheat plant response rating (wheat; [8]) | Plant response rating, Wild oats (wild oat; [4]) | Plant response rating, Wild oats (wild oat; [5]) | Wild oats plant response rating (wild oat; [9]) | Wild oats plant response rating (wild oat; [7]) | Wild oats plant response rating (wild oat; [8]) | Plant response rating, Nutsedge (purple nutsedge; [2]) | Nutsedge plant response rating (purple nutsedge; [3]) | Plant response rating, Nutsedge (purple nutsedge; [4]) | Plant response rating, Nutsedge (purple nutsedge; [5]) | Nutsedge plant response rating (purple nutsedge; [9]) | Nutsedge plant response rating (purple nutsedge; [7]) | Nutsedge plant response rating (purple nutsedge; [8]) | Plant response rating, Rice (0 to 10 scale, 0 is no effect, 10 is complete control) (rice; [10]) | Rice plant response rating (0 to 10 scale, 0 is no effect, 10 is complete control) (rice; [11]) | Rice plant response rating (rice; [12]) | Rice plant response rating (rice; [13]) | Plant response rating, S. Flatsedge (0 to 10 scale, 0 is no effect, 10 is complete control) (smallflower flatsedge; [10]) | S. Flatsedge plant response rating (0 to 10 scale, 0 is no effect, 10 is complete control) (smallflower flatsedge; [11]) | S. Flatsedge plant response rating (smallflower flatsedge; [12]) | S. Flatsedge plant response rating (smallflower flatsedge; [13]) | Plant response rating, Ducksalad (0 to 10 scale, 0 is no effect, 10 is complete control) (duck salad; [10]) | Ducksalad plant response rating (0 to 10 scale, 0 is no effect, 10 is complete control) (duck salad; [11]) | Ducksalad plant response rating (duck salad; [12]) | Ducksalad plant response rating (duck salad; [13]) | Plant response rating, Barnyardgrass (0 to 10 scale, 0 is no effect, 10 is complete control) (bamyardgrass; [10]) | Barnyardgrass plant response rating (0 to 10 scale, 0 is no effect, 10 is complete control) (bamyardgrass; [11]) | Barnyardgrass plant response rating (bamyardgrass; [12]) | Barnyardgrass plant response rating (bamyardgrass; [13])
3: Wheat plant response rating (wheat; [3]) | Wild oats plant response rating (wild oat; [3])
